Tests used:
[1] = tested on: collagen-induced arthritis (CIA) model mice; test: collagen-induced arthritis (CIA) model mice, clinical scores; assay type: in vivo, DBA/1J mice; set-up: key to Pairwise analysis of the difference between groups (clinical scores), vs Model / Pairwise analysis of the difference between groups (clinical scores), S5i 5 mpk vs S5i 10 mpk: p values from pairwise comparisons
Description: FIGS. 8A and 8B show graphs depicting clinical score changes in four groups of CIA mouse models under different treatment schemes. In FIG. 8A, different chemicals (DMSO as control for Model group, blank group is left untreated) were daily administered intraperitoneally at the indicated doses from the first injection of the collagen agent. In FIG. 8B, different chemicals were daily administered intraperitoneally from the second injection of collagen agent at the indicated doses. Clinical scores were given double-blindly according to the scoring scheme every 2 days.
FIGS. 9A and 9B show graphs of clinical scores at day 44 for each group, the overall difference analyzed by ANOVA is significant p<0.0001, while the p value between Model and each individual group is labeled above the bar * p<0.05, ** p<0.01.
Eight of nine groups (10 mice in each group) of male DBA/1J mice (age 9-10 weeks. H-2q haplotype) were subject to CIA model induction and then to different treatment schemes. The group of mice without CIA model induction was used as a control (Blank). Specifically, Bovine type II collagen (Chondrex) was mixed with Freund's complete adjuvant (CFA) (Sigma) and injected s.c. to flank near tail of the mice twice (the second injection was made 21 days after the first injection) to create CIA model mice. The eight groups of CIA model mice were separated into four prophylactic groups and four therapeutic groups, with each group subjected to different treatments.
In the four prophylactic groups, daily treatments started from the date when the first CIA induction injection was made. The first of the four prophylactic groups of CIA model mice were treated with 30% PEG300 (containing 4% DMSO-all 30% PEG300 in the application contains 4% DMSO) solution via intraperitoneal injection as controls (Model). The second of the four prophylactic groups of CIA model mice were treated with nicotinohydrazide (Calbiochem) 10 mg/kg in 30% PEG300 solution via intraperitoneal injection (573108 10 mg/kg). The third of the four prophylactic groups of CIA model mice were treated with nicotinohydrazide (Calbiochem) 5 mg/kg in 30% PEG300 solution via intraperitoneal injection (573108 5 mg/kg). The last of the four prophylactic groups of CIA model mice were treated with Tofacitinib (Selleckchem) 5 mg/kg in 30% PEG300 solution via intraperitoneal injection (Tofacitinib 5 mg/kg).
In the four therapeutic groups, daily treatments started from the date when the second CIA induction injection was made. The first of the four therapeutic groups of CIA model mice were treated with 30% PEG300 solution via intraperitoneal injection as controls (Model). The second of the four therapeutic groups of CIA model mice were treated with nicotinohydrazide (Calbiochem) 10 mg/kg in 30% PEG300 solution via intraperitoncal injection (573108 10 mg/kg). The third of the four therapeutic groups of CIA model mice were treated with nicotinohydrazide (Calbiochem) 5 mg/kg in 30% PEG300 solution via intraperitoneal injection (573108 5 mg/kg). The last of the four therapeutic groups of CIA model mice were treated with Tofacitinib (Selleckchem) 5 mg/kg in 30% PEG300 solution via intraperitoncal injection (Tofacitinib 5 mg/kg).
The inventors collected data of the weight, and clinical scores of the mice every 2-3 days and performed statistic analysis. The method used in the statistic analysis was Student's t test, unpaired, two-tailed analysis.
The clinical scores were derived according to the scheme in Table 2.

[2] = tested on: adjuvant-induced arthritis (AIA) rat model; test: AIA rat model, paw volume and clinical scores; assay type: in vivo, rats
Experimental: FIG. 3 is a graph illustrating the treatment scheme in an adjuvant-induced arthritis (AIA) rat model. In the prophylactic group, treatment starts from day 0 and administered every other day. In the therapeutic group, treatment starts from day 13 and was administered every other day.
Three groups (10 rats in each group) of female rats (age 8 weeks) were subject to AIA model induction and then to different treatment schemes. Specifically, 100 ug mBSA mixed with CFA was injected s.c. to flank near tail, and one dose of B. pertusiss was injected i.p. the next day to boost the immune reaction. The first of the three groups of rats were treated with DMSO (Vehicle). The second of the three groups of rats were treated with pimozide (Sigma-Aldrich) 10 mg/kg of body weight (same unit are used throughout this application) in 30% PEG300 solution via intraperitoneal injection with collagen injection starting from day 7 (Therapeutic). The last of the three groups of rats were treated with pimozide (Sigma-Aldrich) 10 mg/kg in 30% PEG300 solution via intraperitoneal injection either with collagen injection starting from day 0. As a control, a fourth group of female rats (5 rats) were spared the AIA model induction and were not treated. The inventors collected data of the weight, paw volume, and clinical scores every three days and performed statistic analysis.
The clinical scores were derived according to the scheme in Table 1.
The method used in the statistic analysis was Student's t test, unpaired, two-tailed analysis.

[3] = Prophylactic group, 10 mg/kg i.p. from day 0, starting from day 13
[4] = Therapeutic group, 10 mg/kg i.p., starting from day 17

Compound: O=C(N/N=C/c1coc2ccccc2c1=O)c1cccnc1 [nicotinohydrazide, N′-((4-Oxo-4H-chromen-3-yl)methylene)nicotinohydrazide]
- clinical scores compared to Model ([1]; prophylactic groups, 5 mg/kg i.p. daily): reduced clinical scores
- clinical scores compared to Model ([1]; prophylactic groups, 10 mg/kg i.p. daily): reduced clinical scores
- Pairwise analysis of the difference between groups (clinical scores), vs Model ([1]; prophylactic groups, 5 mpk, Day 28): 0.1019
- Pairwise analysis of the difference between groups (clinical scores), vs Model ([1]; prophylactic groups, 5 mpk, Day 30): 0.0410
- Pairwise analysis of the difference between groups (clinical scores), vs Model ([1]; prophylactic groups, 5 mpk, Day 32): 0.0740
- Pairwise analysis of the difference between groups (clinical scores), vs Model ([1]; prophylactic groups, 5 mpk, Day 35): 0.0615
- Pairwise analysis of the difference between groups (clinical scores), vs Model ([1]; prophylactic groups, 5 mpk, Day 37): 0.1101
- Pairwise analysis of the difference between groups (clinical scores), vs Model ([1]; prophylactic groups, 5 mpk, Day 39): 0.0010
- Pairwise analysis of the difference between groups (clinical scores), vs Model ([1]; prophylactic groups, 5 mpk, Day 42): 0.0185
- Pairwise analysis of the difference between groups (clinical scores), vs Model ([1]; prophylactic groups, 5 mpk, Day 44): 0.2729
- Pairwise analysis of the difference between groups (clinical scores), vs Model ([1]; prophylactic groups, 10 mpk, Day 28): 0.1491
- Pairwise analysis of the difference between groups (clinical scores), vs Model ([1]; prophylactic groups, 10 mpk, Day 30): 0.1452
- Pairwise analysis of the difference between groups (clinical scores), vs Model ([1]; prophylactic groups, 10 mpk, Day 32): 0.1256
- Pairwise analysis of the difference between groups (clinical scores), vs Model ([1]; prophylactic groups, 10 mpk, Day 35): 0.0354
- Pairwise analysis of the difference between groups (clinical scores), vs Model ([1]; prophylactic groups, 10 mpk, Day 37): 0.0614
- Pairwise analysis of the difference between groups (clinical scores), vs Model ([1]; prophylactic groups, 10 mpk, Day 39): 0.0008
- Pairwise analysis of the difference between groups (clinical scores), vs Model ([1]; prophylactic groups, 10 mpk, Day 42): 0.0033
- Pairwise analysis of the difference between groups (clinical scores), vs Model ([1]; prophylactic groups, 10 mpk, Day 44): 0.0128
- Pairwise analysis of the difference between groups (clinical scores), S5i 5 mpk vs S5i 10 mpk ([1]; prophylactic groups, Day 28): 0.7387
- Pairwise analysis of the difference between groups (clinical scores), S5i 5 mpk vs S5i 10 mpk ([1]; prophylactic groups, Day 30): 0.5943
- Pairwise analysis of the difference between groups (clinical scores), S5i 5 mpk vs S5i 10 mpk ([1]; prophylactic groups, Day 32): 0.8722
- Pairwise analysis of the difference between groups (clinical scores), S5i 5 mpk vs S5i 10 mpk ([1]; prophylactic groups, Day 35): 0.7717
- Pairwise analysis of the difference between groups (clinical scores), S5i 5 mpk vs S5i 10 mpk ([1]; prophylactic groups, Day 37): 0.8686
- Pairwise analysis of the difference between groups (clinical scores), S5i 5 mpk vs S5i 10 mpk ([1]; prophylactic groups, Day 39): 0.9741
- Pairwise analysis of the difference between groups (clinical scores), S5i 5 mpk vs S5i 10 mpk ([1]; prophylactic groups, Day 42): 0.1588
- Pairwise analysis of the difference between groups (clinical scores), S5i 5 mpk vs S5i 10 mpk ([1]; prophylactic groups, Day 44): 0.0717
- clinical scores compared to Model ([1]; therapeutic groups, 5 mg/kg i.p. daily): reduced clinical scores
- clinical scores compared to Model ([1]; therapeutic groups, 10 mg/kg i.p. daily): reduced clinical scores
- Pairwise analysis of the difference between groups (clinical scores), vs Model ([1]; therapeutic groups, 5 mpk, Day 28): 0.0117
- Pairwise analysis of the difference between groups (clinical scores), vs Model ([1]; therapeutic groups, 5 mpk, Day 30): 0.0295
- Pairwise analysis of the difference between groups (clinical scores), vs Model ([1]; therapeutic groups, 5 mpk, Day 32): 0.0032
- Pairwise analysis of the difference between groups (clinical scores), vs Model ([1]; therapeutic groups, 5 mpk, Day 35): 0.0025
- Pairwise analysis of the difference between groups (clinical scores), vs Model ([1]; therapeutic groups, 5 mpk, Day 37): 0.0024
- Pairwise analysis of the difference between groups (clinical scores), vs Model ([1]; therapeutic groups, 5 mpk, Day 39): 0.0019
- Pairwise analysis of the difference between groups (clinical scores), vs Model ([1]; therapeutic groups, 5 mpk, Day 42): 0.0044
- Pairwise analysis of the difference between groups (clinical scores), vs Model ([1]; therapeutic groups, 5 mpk, Day 44): 0.0012
- Pairwise analysis of the difference between groups (clinical scores), vs Model ([1]; therapeutic groups, 10 mpk, Day 28): 0.0399
- Pairwise analysis of the difference between groups (clinical scores), vs Model ([1]; therapeutic groups, 10 mpk, Day 30): 0.0190
- Pairwise analysis of the difference between groups (clinical scores), vs Model ([1]; therapeutic groups, 10 mpk, Day 32): 0.0080
- Pairwise analysis of the difference between groups (clinical scores), vs Model ([1]; therapeutic groups, 10 mpk, Day 35): 0.1008
- Pairwise analysis of the difference between groups (clinical scores), vs Model ([1]; therapeutic groups, 10 mpk, Day 37): 0.1336
- Pairwise analysis of the difference between groups (clinical scores), vs Model ([1]; therapeutic groups, 10 mpk, Day 39): 0.1189
- Pairwise analysis of the difference between groups (clinical scores), vs Model ([1]; therapeutic groups, 10 mpk, Day 42): 0.0820
- Pairwise analysis of the difference between groups (clinical scores), vs Model ([1]; therapeutic groups, 10 mpk, Day 44): 0.0397
- Pairwise analysis of the difference between groups (clinical scores), S5i 5 mpk vs S5i 10 mpk ([1]; therapeutic groups, Day 28): 0.4163
- Pairwise analysis of the difference between groups (clinical scores), S5i 5 mpk vs S5i 10 mpk ([1]; therapeutic groups, Day 30): 0.8721
- Pairwise analysis of the difference between groups (clinical scores), S5i 5 mpk vs S5i 10 mpk ([1]; therapeutic groups, Day 32): 0.4838
- Pairwise analysis of the difference between groups (clinical scores), S5i 5 mpk vs S5i 10 mpk ([1]; therapeutic groups, Day 35): 0.0249
- Pairwise analysis of the difference between groups (clinical scores), S5i 5 mpk vs S5i 10 mpk ([1]; therapeutic groups, Day 37): 0.0183
- Pairwise analysis of the difference between groups (clinical scores), S5i 5 mpk vs S5i 10 mpk ([1]; therapeutic groups, Day 39): 0.0183
- Pairwise analysis of the difference between groups (clinical scores), S5i 5 mpk vs S5i 10 mpk ([1]; therapeutic groups, Day 42): 0.0777
- Pairwise analysis of the difference between groups (clinical scores), S5i 5 mpk vs S5i 10 mpk ([1]; therapeutic groups, Day 44): 0.0842

Compound: O=c1[nH]c2ccccc2n1C1CCN(CCCC(c2ccc(F)cc2)c2ccc(F)cc2)CC1 [pimozide, 1-[1-[4,4-bis(4-fluorophenyl)butyl]-4-piperidinyl]-1,3-dihydro-2H-benzimidazole-2-one]
- clinical score vs Vehicle group [2, 3]: significantly decreased
- paw volume vs Vehicle group [2, 3]: significantly decreased
- clinical score vs Vehicle group [2, 4]: significantly decreased
- paw volume vs Vehicle group [2, 4]: significantly decreased

— patent publication US11612595B2, “Compositions and methods for treating rheumatoid arthritis” (Generos Biopharma Ltd., priority 2017, dated 2023)
